Patent US9687529B2, “Method of controlling coagulation” (Duke University, priority 2011, dated 2017)
“And” between values parts separate entries of the source, which are not always exact repeats. Equal entries are not always repeated.

Experiments:
[1] = tested on: clot formation in whole blood; experiment: Thromboelastography (TEG), whole blood stimulated with tissue factor; assay type: cell-based, human
Method: (§1) Blood was drawn from healthy, consented volunteers under a Duke University Institutional Review Board approved protocol and anticoagulated with 3.2% sodium citrate. Whole blood (320 μL) was mixed with anticoagulant (heparin or aptamers) (10 μL) and kaolin (Haemonetics, Niles, Ill.) (10 μL) or CAT PRP reagent (Diagnostica Stago, 0.33 ρM TF final) (10 μL) was added to stimulate clotting. CaCl2 (20 μL) was immediately added to overcome the citrate, the mixture was added to a plain disposable plastic TEG cup (Haemonetics), and the assay was run according to the manufacturer's instructions. Clot formation at 37° C. was measured with a Thromboelastograph Analyzer (Haemonetics, Niles, Ill.) until a stable clot was formed (i.e., a maximum amplitude was reached) or for three hours with the aptamer combinations. The time lag time, α-angle, and maximum amplitude were automatically calculated by the TEG® Analytical Software version 4.2.3 (Haemonetics).
Because kaolin stimulates blood via the intrinsic pathway, it is unlikely that 7S-1 (FVIIa aptamer) would impair clot formation with this type of stimulation; thus, this aptamer was tested in a modified TEG with TF stimulation. CAT platelet rich plasma (PRP) reagent (TF) was diluted to a final concentration of 0.33 ρM TF to stimulate clotting.

[2] = tested on: clot formation in normal human platelet poor plasma; experiment: Activated partial thromboplastin time (aPTT) plasma clotting assay; assay type: biochemical; conditions: for increase of aPTT clotting time: 4 μM aptamer
Method: The activated partial thromboplastin time (aPTT) and prothrombin time (PT) assays were performed on a model ST4 mechanical coagulometer (Diagnostica Stago, Parsippany, N.J.) as previously described (Bompiani et al, J Thromb Haemost 10:870-80 (2012)). For the aPTT, 50 μL of normal human platelet poor plasma (PPP) was incubated with 50 μL TriniClot aPTT S (Trinity BioTech, Bray, Co Wicklow, Ireland) at 37° C. for 5 min. Aptamer(s) (5 μL) was added, and the mixture was incubated at 37° C. for another 5 min, and CaCl2 (50 μL) was added to initiate the assay. For the PT, 50 μL of normal human PPP was incubated with 5 μL of aptamer(s) at 37° C. for 5 min. TriniClot PT Excel reagent (Trinity BioTech, Bray, Co Wicklow, Ireland) (100 μL) was added to initiate the reaction. Assays with a combination of two aptamers contain an equimolar concentration of each individual aptamer, and the data shown are the total RNA concentration.
To compare the anticoagulant effect of these four aptamers, dose-response titrations were performed in several clinical plasma-based clotting assays. The activated partial thromboplastin time (aPTT) and prothrombin time (PT) are plasma clotting assays that are clinically used to probe for abnormalities in the intrinsic and extrinsic coagulation pathways, respectively (Van Cott et al, editors. Jacobs & DeMott laboratory test handbook. 5th ed. Hudson Ohio: Lexi-Comp. p. 327-58 (2001)). These relatively simple assays measure the time until clot formation in platelet poor plasma (PPP) in response to either robust tissue factor (TF), or contact stimulation via negatively charged surfaces (i.e., silica, kaolin, celite). […] At high concentrations, the prothrombin aptamer (R9D-14T) was the most robust anticoagulant and inhibited greater than 96% of prothrombin activity in the aPTT and PT. At 4 μM, R9D-14T increased the aPTT clotting time approximately 18-fold and the PT clotting time greater than 80-fold (exceeded the assay limit of 999 sec). […] At the same dose, the FIXa aptamer (9.3T) inhibited greater than 99% of FIX activity and increased the aPTT clotting time approximately 5.5-fold, while the FVIIa aptamer (7S-1) increased the PT clotting time 3-fold and inhibited greater than 99% of FVII activity (FIGS. 20A and 20B).

[3] = tested on: clot formation in whole blood; experiment: TEG of whole blood, coagulation triggered by kaolin (Example I); assay type: cell-based; conditions: for α: buffer 44.9 degrees; for MA: buffer 63.1 mm; for R: buffer 6.8 minutes
Method: TEG is a waveform generated from serial measurements of the torque transmitted from a small oscillating cup to the tip of a metal pin inserted into the cup by a 360 microliter sample of blood or plasma added to the cup.
A 360 microliter blood sample has been added to the cup. For 180 minutes after the sample is added, the cup oscillates alternatively clockwise and counterclockwise through an arc of 4° 45′ at a frequency of one oscillation cycle—i. e., one clockwise rotation and one counterclockwise rotation—every 10 seconds. The lower end of the pin is immersed by the sample; the upper end is suspended from a torsion wire. The TEG analyzer records a single measurement of rotation-induced torque after each clockwise rotation and after each counterclockwise rotation of the cup. “The torque of the rotating cup is transmitted to the immersed pin only after fibrin-platelet bonding has linked the cup and [the] pin together. The strength of these fibrin-platelet bonds affects the magnitude of the pin motion, such that strong clots move the pin directly in phase with the cup motion. Thus, the magnitude of the output is directly related to the strength of the formed clot . . . . [If] the clot retracts or lyses, these bonds are broken and the transfer of cup motion is diminished. The rotation movement of the pin is converted by a mechanical-electrical transducer to an electrical signal which can be monitored by a computer” (TEG 5000 User Manual, pp 3-4, 1999-2007)). The computer converts the series of electrical signals into the TEG tracing.
In the absence of an anticoagulant (A), R was 6.8 minutes, α was 44.9 degrees, and MA was 63.1 mm. […] Thus, each aptamer, to varying degrees, prolonged the time to clot formation, reduced the rate of clot strengthening, and reduced the ultimate strength of the clot. However, as was true in the previous experiment, no aptamer acting alone at the concentrations tested prevented clot formation.

[4] = tested on: clot formation in whole blood; experiment: Thromboelastography (TEG), whole blood stimulated with kaolin; assay type: cell-based, human
Method: as §1
Although the aPTT, PT, and CAT assays provide basic information about dose-dependent anticoagulation, these assays are performed in an environment that lacks platelets. Platelets play a crucial role in clot formation by providing a membrane surface upon which the clotting factors assemble, by aggregating and becoming physically incorporated into the blood clot, and by releasing internal stores of agonists that amplify coagulation (Monroe et al, Arterioscler Thromb Vasc Biol 22:138 1-9 (2002)). Therefore, a study was made of aptamer anticoagulation with thromboelastography (TEG), which provides real-time information about the kinetics of clot formation in whole blood (Reikvam et al, Transfus Apher Sci; 40:119-23 (2009). The TEG assay uses mechanical motion to quantify the physical properties of clot formation, including the lag time (the time until clot formation), the α-angle (the rate of clot formation), and the maximum amplitude (the mechanical strength of the clot formed).

Substance	increase of aPTT clotting time [2]	α ([3]; 2.0 micromolar, kaolin)	MA ([3]; 2.0 micromolar, kaolin)	R ([3]; 2.0 micromolar, kaolin)	Angle ([4]; RNA 0.5 μM)	Lag-time ([4]; RNA 0.5 μM)	Max. Amplitude ([4]; RNA 0.5 μM)	Angle ([4]; RNA 1.0 μM)	Lag-time ([4]; RNA 1.0 μM)	Max. Amplitude ([4]; RNA 1.0 μM)	Angle ([4]; RNA 2.0 μM)	Lag-time ([4]; RNA 2.0 μM)	Max. Amplitude ([4]; RNA 2.0 μM)	also measured
9.3T: FIXa aptamer, 2'-fluoropyrimidine modified RNA, SEQ ID NO: 1 (AUGGGGACUAUACCGCGUAAUGCUGCCUCCCCAU; 2'-fluoro at CU, RNA at AG, backbone not given here) [Aptamer 9.3T]	approximately 5.5 fold	36.6 degrees	58.6 mm	29.2 min	41.4 ± 0.5 deg	22.8 ± 2.0 min	55.4 ± 3.2 mm	37.6 deg and 37.6 ± 7.1 deg	25.5 min and 25.5 ± 1.8 min	55.4 mm and 55.4 ± 2.6 mm	36.9 ± 2.9 deg	29.9 ± 1.4 min	55.9 ± 3.4 mm	Angle ([1]; RNA 1.00 μM): 66.3 deg and 66.3 ± 1.3 deg; Lag-time ([1]; RNA 1.00 μM): 4.5 min and 4.5 ± 0.5 min; Max. Amplitude ([1]; RNA 1.00 μM): 69.1 mm and 69.1 ± 1.5 mm; time of clot formation (bifurcation) ([3]; FIXa aptamer 0.5 micromolar, kaolin): 22.1 min
R9D-14T: prothrombin/thrombin aptamer, 58-base truncation of RNA9D-14, SEQ ID NO: 3 (GGCGGTCGATCACACAGTTCAAACGTAATAAGCCAATGTACGAGGCAGACGACTCGCC; 2'-fluoro at CT, RNA at AG, backbone and T or U not given here) [Aptamer R9D-14T]	approximately 18 fold										48.1 ± 9.7 deg	8.3 ± 2.0 min	56.0 ± 6.3 mm	Angle ([1]; RNA 5.00 μM): 15.2 deg and 15.2 ± 2.5 deg; Lag-time ([1]; RNA 5.00 μM): 39.4 min and 39.4 ± 5.0 min; Max. Amplitude ([1]; RNA 5.00 μM): 36.8 mm and 36.8 ± 1.4 mm; prothrombin activity inhibited ([2]; aPTT, high concentrations): greater than 96%; α ([3]; 5.0 micromolar, kaolin): 18.6 degrees; MA ([3]; 5.0 micromolar, kaolin): 42.5 mm; R ([3]; 5.0 micromolar, kaolin): 31.3 min; Angle ([4]; RNA 1.25 μM): 60.4 ± 2.4 deg; Lag-time ([4]; RNA 1.25 μM): 7.1 ± 1.4 min; Max. Amplitude ([4]; RNA 1.25 μM): 62.0 ± 3.0 mm; Angle ([4]; RNA 5.0 μM): 30 deg and 30.0 ± 5.7 deg; Lag-time ([4]; RNA 5.0 μM): 21.5 min and 21.5 ± 4.9 min; Max. Amplitude ([4]; RNA 5.0 μM): 49.6 mm and 49.6 ± 3.6 mm
11F7T: FXa aptamer, 2'-fluoropyrimidine modified RNA, SEQ ID NO: 2 (GAGAGCCCCAGCGAGAUAAUACUUGGCCCCGCUCUU; 2'-fluoro at CU, RNA at AG, backbone not given here) [Aptamer 11F7T]	approximately 11 fold	29.8 degrees	48.4 mm	22.5 min	40.3 ± 1.4 deg	15.6 ± 0.8 min	52.4 ± 1.6 mm	28.7 ± 5.0 deg	20.6 ± 3.0 min	48.2 ± 3.7 mm	18 deg and 18.0 ± 5.9 deg	39.6 min and 39.6 ± 9.1 min	39.6 mm and 39.6 ± 4.4 mm	Angle ([1]; RNA 2.00 μM): 21.4 deg and 21.4 ± 7.3 deg; Lag-time ([1]; RNA 2.00 μM): 51.1 min and 51.1 ± 12.2 min; Max. Amplitude ([1]; RNA 2.00 μM): 51.1 mm and 51.1 ± 1.6 mm; clot formation in TEG assays, single agents (in words) ([3]; data not shown): delay, but do not prevent clot formation
